Biological target: full-length human LSD1 (Homo sapiens (Human), UniProt O60341)
Test: In vitro enzyme inhibition assay LSD-1 (TR-FRET)
Assay type: biochemical
Conditions: H3K4me1-biotin peptide
Description: This assay determines the ability of a test compound to inhibit LSD1 demethylase activity.
The enzymatic assay of LSD1 activity is based on Time Resolved-Fluorescence Resonance Energy Transfer (TR-FRET) detection.
The ability of the compounds disclosed herein to inhibit LSD1 activity was quantified and the respective IC50 value was determined.

Structure (SMILES) | IC50 [nM]
COc1ccc(-c2c(-c3ccc(C#N)c(F)c3)nc(N3CC[C@@H](N)[C@@H](F)C3)n(C)c2=O)cc1 [Example 78, 4-[2-((4R,3S)-4-amino-3-fluoro-piperidin-1-yl)-5-(4-methoxy-phenyl)-1-methyl-6-oxo-1,6-dihydro-pyrimidin-4-yl]-2-fluoro-benzonitrile] | < 100
COc1ccc(-c2c(-c3ccc(C#N)c(F)c3)nc(N3CC[C@H](N)[C@H](F)C3)n(C)c2=O)cc1 [Example 79, 4-[2-((4S,3R)-4-amino-3-fluoro-piperidin-1-yl)-5-(4-methoxy-phenyl)-1-methyl-6-oxo-1,6-dihydro-pyrimidin-4-yl]-2-fluoro-benzonitrile] | < 100
CN(C)C1CCN(c2nc(-c3ccc(C#N)c(F)c3)c(-c3ccc4cn(C)nc4c3)c(=O)n2C)CC1 [Example 80, 4-[2-(4-dimethylamino-piperidin-1-yl)-1-methyl-5-(2-methyl-2H-indazol-6-yl)-6-oxo-1,6-dihydro-pyrimidin-4-yl]-2-fluoro-benzonitrile] | < 100
CN(C)c1ncc(-c2c(-c3ccc(C#N)c(F)c3)nc(N3CCC(N(C)C)CC3)n(C)c2=O)cn1 [Example 81, 4-[2′-dimethylamino-2-(4-dimethylamino-piperidin-1-yl)-1-methyl-6-oxo-1,6-dihydro-[5,5′]bipyrimidinyl-4-yl]-2-fluoro-benzonitrile] | < 100
Cc1ccc(-c2c(-c3ccc(C#N)c(F)c3)nc(N3CCC(N(C)C)CC3)n(C)c2=O)cn1 [Example 82, 4-[2-(4-dimethylamino-piperidin-1-yl)-1-methyl-5-(6-methyl-pyridin-3-yl)-6-oxo-1,6-dihydro-pyrimidin-4-yl]-2-fluoro-benzonitrile] | < 100
CNC1CCN(c2nc(-c3ccc(C#N)c(F)c3)c(-c3ccc(N(C)C)nc3)c(=O)n2C)CC1 [Example 83, 4-[5-(6-dimethylamino-pyridin-3-yl)-1-methyl-2-(4-methylamino-piperidin-1-yl)-6-oxo-1,6-dihydro-pyrimidin-4-yl]-2-fluoro-benzonitrile] | < 100
CN(C)C1CCN(c2nc(-c3ccc(C#N)c(F)c3)c(-c3ccc4cn[nH]c4c3)c(=O)n2C)CC1 [Example 84, 4-[2-(4-dimethylamino-piperidin-1-yl)-5-(2H-indazol-6-yl)-1-methyl-6-oxo-1,6-dihydro-pyrimidin-4-yl]-2-fluoro-benzonitrile] | < 100
CNC1CCN(c2nc(-c3ccc(C#N)c(F)c3)c(-c3ccc4c(cnn4C)c3)c(=O)n2C)CC1 [Example 87, 2-fluoro-4-[1-methyl-2-[4-(methylamino)piperidin-1-yl]-5-(1-methylindazol-5-yl)-6-oxopyrimidin-4-yl]benzonitrile] | < 100
Cn1c(N2CCC(N)CC2)nc(-c2ccc(C#N)c(F)c2)c(-c2ccc3[nH]ncc3c2)c1=O [Example 88, 4-[2-(4-aminopiperidin-1-yl)-5-(1H-indazol-5-yl)-1-methyl-6-oxopyrimidin-4-yl]-2-fluorobenzonitrile] | < 100
Cn1c(N2CCC(N)CC2)nc(-c2ccc(C#N)c(F)c2)c(-c2ccc(N)cc2)c1=O [Example 89, 4-[5-(4-aminophenyl)-2-(4-aminopiperidin-1-yl)-1-methyl-6-oxopyrimidin-4-yl]-2-fluorobenzonitrile] | < 100
CNc1ccc(-c2c(-c3ccc(C#N)c(F)c3)nc(N3CCC(N)CC3)n(C)c2=O)cc1 [Example 90, 4-[2-(4-aminopiperidin-1-yl)-1-methyl-5-[4-(methylamino)phenyl]-6-oxopyrimidin-4-yl]-2-fluorobenzonitrile] | < 100
CNc1ccc(-c2c(-c3ccc(C#N)c(F)c3)nc(N3CCC(N)CC3)n(C)c2=O)cc1F [Example 91, 4-[2-(4-aminopiperidin-1-yl)-5-[3-fluoro-4-(methylamino)phenyl]-1-methyl-6-oxopyrimidin-4-yl]-2-fluorobenzonitrile] | < 100
COc1ccc(-c2c(-c3ccc(C#N)c(F)c3)nc(N3CCC(N(C)C)CC3)n(C)c2=O)cn1 [Example 92, 4-[2-[4-(dimethylamino)piperidin-1-yl]-5-(6-methoxypyridin-3-yl)-1-methyl-6-oxopyrimidin-4-yl]-2-fluorobenzonitrile] | < 100
CCOc1ncc(-c2c(-c3ccc(C#N)c(F)c3)nc(N3CCC(N)CC3)n(C)c2=O)cc1F [Example 93, 4-[2-(4-aminopiperidin-1-yl)-5-(6-ethoxy-5-fluoropyridin-3-yl)-1-methyl-6-oxopyrimidin-4-yl]-2-fluorobenzonitrile] | < 100
CCOc1ccc(-c2c(-c3ccc(C#N)c(F)c3)nc(N3CCC(N)CC3)n(C)c2=O)cn1 [Example 94, 4-[2-(4-aminopiperidin-1-yl)-5-(6-ethoxypyridin-3-yl)-1-methyl-6-oxopyrimidin-4-yl]-2-fluorobenzonitrile] | < 100
CCOc1ccc(-c2c(-c3ccc(C#N)c(F)c3)nc(N3CCC(N)CC3)n(C)c2=O)cc1 [Example 95, 4-[2-(4-aminopiperidin-1-yl)-5-(4-ethoxyphenyl)-1-methyl-6-oxopyrimidin-4-yl]-2-fluorobenzonitrile] | < 100
Cn1c(N2CCC(N)CC2)nc(-c2ccc(C#N)cc2)c(-c2ccc(OCCO)cc2)c1=O [Example 97, 4-[2-(4-aminopiperidin-1-yl)-5-[4-(2-hydroxyethoxy)phenyl]-1-methyl-6-oxopyrimidin-4-yl]benzonitrile] | < 100

Structure (SMILES) | IC50 [nM]
COCCOc1ccc(-c2c(-c3ccc(C#N)c(F)c3)nc(N3CCC(N)CC3)n(C)c2=O)cc1 [Example 98, 4-[2-(4-aminopiperidin-1-yl)-5-[4-(2-methoxyethoxy)phenyl]-1-methyl-6-oxopyrimidin-4-yl]-2-fluorobenzonitrile] | < 100
Cn1c(N2CCC(N)CC2)nc(-c2ccc(C#N)c(F)c2)c(-c2ccc(CCO)cc2)c1=O [Example 99, 4-[2-(4-aminopiperidin-1-yl)-5-[4-(2-hydroxyethyl)phenyl]-1-methyl-6-oxopyrimidin-4-yl]-2-fluorobenzonitrile] | < 100
Cn1c(N2CCC(N)CC2)nc(-c2ccc(C#N)c(F)c2)c(-c2ccc(CO)cc2)c1=O [Example 100, 4-[2-(4-aminopiperidin-1-yl)-5-[4-(hydroxymethyl)phenyl]-1-methyl-6-oxopyrimidin-4-yl]-2-fluorobenzonitrile] | < 100
Cn1c(N2CCC(N)CC2)nc(-c2ccc(C#N)c(F)c2)c(-c2ccc(F)cc2)c1=O [Example 101, 4-[2-(4-aminopiperidin-1-yl)-5-(4-fluorophenyl)-1-methyl-6-oxopyrimidin-4-yl]-2-fluorobenzonitrile] | < 100
Cn1c(N2CCC(N)CC2)nc(-c2ccc(C#N)c(F)c2)c(-c2cccc(F)c2)c1=O [Example 102, 4-[2-(4-aminopiperidin-1-yl)-5-(3-fluorophenyl)-1-methyl-6-oxopyrimidin-4-yl]-2-fluorobenzonitrile] | < 100
Cn1c(N2CCC(N)CC2)nc(-c2ccc(C#N)c(F)c2)c(-c2cc(F)cc(F)c2)c1=O [Example 103, 4-[2-(4-aminopiperidin-1-yl)-5-(3,5-difluorophenyl)-1-methyl-6-oxopyrimidin-4-yl]-2-fluorobenzonitrile] | < 100
Cn1c(N2CCC(N)CC2)nc(-c2ccc(C#N)c(F)c2)c(-c2ccc(F)c(F)c2)c1=O [Example 104, 4-[2-(4-aminopiperidin-1-yl)-5-(3,4-difluorophenyl)-1-methyl-6-oxopyrimidin-4-yl]-2-fluorobenzonitrile] | < 100
Cn1c(N2CCC(N)CC2)nc(-c2ccc(C#N)c(F)c2)c(-c2ccc(S(C)(=O)=O)cc2)c1=O [Example 105, 4-[2-(4-aminopiperidin-1-yl)-1-methyl-5-(4-methylsulfonylphenyl)-6-oxopyrimidin-4-yl]-2-fluorobenzonitrile] | < 100
Cn1c(N2CCC(N)CC2)nc(-c2ccc(C#N)c(F)c2)c(-c2ccc(Cl)cc2)c1=O [Example 106, 4-[2-(4-aminopiperidin-1-yl)-5-(4-chlorophenyl)-1-methyl-6-oxopyrimidin-4-yl]-2-fluorobenzonitrile] | < 100
COCc1ccc(-c2c(-c3ccc(C#N)c(F)c3)nc(N3CCC(N)CC3)n(C)c2=O)cc1 [Example 107, 4-[2-(4-aminopiperidin-1-yl)-5-[4-(methoxymethyl)phenyl]-1-methyl-6-oxopyrimidin-4-yl]-2-fluorobenzonitrile] | < 100
Cn1c(N2CCC(N)CC2)nc(-c2ccc(C#N)c(F)c2)cc1=O [Example 108, 4-[2-(4-aminopiperidin-1-yl)-1-methyl-6-oxopyrimidin-4-yl]-2-fluorobenzonitrile] | < 100
N#Cc1ccc(-c2cc(=O)n(CC3CC3)c(N3CCC(N)CC3)n2)cc1F [Example 109, 4-[2-(4-amino-piperidin-1-yl)-1-cyclopropylmethyl-6-oxo-1,6-dihydro-pyrimidin-4-yl]-2-fluoro-benzonitrile] | 100 to 1000
C#Cc1c(-c2ccc(C#N)c(F)c2)nc(N2CCC(N)CC2)n(C)c1=O [Example 110] | < 100
COc1ccc(-c2c(-c3ccc(Cl)c(F)c3)nc(N3CCC(N)CC3)n(C)c2=O)cc1 [Example 111, 2-(4-amino-piperidin-1-yl)-6-(4-chloro-3-fluoro-phenyl)-5-(4-methoxy-phenyl)-3-methyl-3H-pyrimidin-4-one] | 100 to 1000
Cn1c(N2CCC(N)CC2)nc(-c2ccc(F)cc2)c(-c2ccc3c(ccn3C)c2)c1=O [Example 113, 2-(4-amino-piperidin-1-yl)-6-(4-fluoro-phenyl)-3-methyl-5-(1-methyl-1H-indol-5-yl)-3H-pyrimidin-4-one] | 100 to 1000
Cn1c(N2CCC(N)CC2)nc(-c2ccccc2)c(-c2ccc3c(ccn3C)c2)c1=O [Example 114, 2-(4-amino-piperidin-1-yl)-3-methyl-5-(1-methyl-1H-indol-5-yl)-6-phenyl-3H-pyrimidin-4-one] | > 10000
Cn1c(N2CCC(N)CC2)nc(-c2ccncc2)c(-c2ccc3c(ccn3C)c2)c1=O [Example 116, 2-(4-amino-piperidin-1-yl)-3-methyl-5-(1-methyl-1H-indol-5-yl)-6-pyridin-4-yl-3H-pyrimidin-4-one] | 100 to 1000
